{
  "source": "patent US10457662B2",
  "about": "“Substituted amides for treating and preventing cancer” (The Regents of the University of Michigan, priority 2015, dated 2019)",
  "key": {"SNU398": {"system": "SNU398", "assay": "MTT assay, SNU398", "format": "cell-based", "details": "Homo sapiens, SNU-398, HCC cell line", "method": "(§1) In order to understand its potential selectivity for different types of cancer and choose the best model for further characterization, QN523 was tested in a panel of 12 cancer cell lines with various genetic and pathological backgrounds (Table 2). […] Because of remarkable potency of QN-523 in pancreatic cancer in-depth preclinical studies in this disease model were performed."}, "HCT116 p53+/+": {"system": "HCT116 p53+/+", "assay": "MTT assay, HCT116 p53+/+", "format": "cell-based", "details": "Homo sapiens, HCT-116, MTT assay; colorectal cancer cell line", "method": "as §1"}, "SNU449": {"system": "SNU449", "assay": "MTT assay, SNU449", "format": "cell-based", "details": "Homo sapiens, SNU-449, HCC cell line", "method": "as §1"}, "PDAC cell lines": {"system": "PDAC cell lines", "assay": "Colony formation assay, three pancreatic cancer cell lines", "format": "cell-based", "details": "1 μM; all three cell lines; 24 h treatment", "from_the_text": "(§2) A) QN523 inhibits colony formation in PDAC cell lines. […] Data points represent Mean±SD from three independent experiments.\n(§3) The cytotoxicity of QN523 was further evaluated in three pancreatic cancer cell lines using colony formation assay. Using numbers and sizes of colonies as the experimental readout, this long-term assay estimates both anti-proliferative and cytotoxic effect."}, "Jurkat": {"system": "Jurkat", "assay": "MTT assay, Jurkat", "format": "cell-based", "details": "Homo sapiens, leukemia cell line", "method": "as §1"}, "[1]": {"system": "WIPI1, GABARAPL1 and LC3B", "assay": "Western blotting of autophagy related proteins in MiaPaCa-2", "format": "cell-based", "method": "FIG. 12: QN523 induces protein expression of autophagy markers dose-dependently.\nSignificant induction of the protein was detected at concentrations as low as 0.25 μM.\n(§4) In addition, primary antibodies for LC3B, survivin, cyclin D1, Stat3 and phosphorylated Stat3 (Y705) are from Cell Signaling Technology."}, "GRP78, CHOP, ATF3, GDF15": {"system": "GRP78, CHOP, ATF3, GDF15", "assay": "Western blotting of stress responsive proteins in MiaPaCa-2", "format": "cell-based", "details": "72 h, western blotting", "method": "FIG. 11: QN523 induces protein expression of stress markers dose-dependently.\nThis example describes the validation of biomarkers GDF15, ATF3, DDIT3, HSPA5, WIPI1, GABARAPL1 and MAP1LC3B in pancreatic cancer cell lines. To validate the findings from bioinformatics analysis basing on Bru-seq experiments, the proposed biomarkers were further tested in pancreatic cancer cell lines. […] However, the potency of Sulindac is much lower than that of QN523, with IC50 of 300 μM in MiaPaCa-2.\nas §4"}, "MiaPaCa-2 xenograft": {"system": "MiaPaCa-2 xenograft", "assay": "MiaPaCa-2 xenograft in NOD/SCID mice", "format": "in vivo", "method": "FIG. 2A-E: QN523 inhibits tumor growth of MiaPaCa-2 xenograft without systemic cytotoxicity. A) Tumor volume of MiaPaCa-2 xenograft of vehicle or QN523 treated mice. MiaPaCa-2 xenograft was established in NOD/SCID mice. When tumor size reached 100 mm^3, mice were randomized into vehicle control group (n=5) or treatment group (n=5). QN523 was given by i.p. injection five times a week at 10 mg/kg from day 1 to day 9, then at 20 mg/kg from day 10 to day 44. B) Body weight of vehicle of QN523 treated mice. Representative micrographs of hematoxylin and eosin (H&E)-stained organ sections. Images were taken with Olympus IX83 inverted microscope at 20× magnification. […] D) Tumor volumes of study continued after data shown in panel A. QN523 was given at 20 mg/kg five times a week until day 44. Three mice from each group were euthanized for tissue analysis. Two mice remained in each group after day 44 and QN523 dose was increased to 30 mg/kg from day 45, then to 40 mg/kg from day 51 to day 60. E) Body weight of engrafted mice was not affected by QN523 treatment at 10-40 mg/kg. Error bars indicate Mean±SEM.\nTo further evaluate the therapeutic potentials of QN523 in pancreatic cancer, MiaPaCa-2 xenograft were implanted in NOD/SCID mice. When tumor size reached 100 mm^3, mice were randomized to either vehicle control (n=5) or QN523 treatment (n=5) group. QN523 was initially given at 10 mg/kg with intraperitoneal administration."}, "[2]": {"system": "three pancreatic cancer cell lines", "assay": "MTT assay, three pancreatic cancer cell lines", "format": "cell-based", "details": "read-out: Mark: IC50 lower than 1 μM in at least one cell line, Table 1"}, "Hep3B": {"system": "Hep3B", "assay": "MTT assay, Hep3B", "format": "cell-based", "details": "Homo sapiens, HCC cell line", "method": "as §1"}, "MiaPaCa-2": {"system": "MiaPaCa-2", "assay": "Colony formation assay, MiaPaCa-2", "format": "cell-based", "details": "0.1 μM; 24 h treatment", "from_the_text": "as §2, §3"}, "SNU387": {"system": "SNU387", "assay": "MTT assay, SNU387", "format": "cell-based", "details": "Homo sapiens, SNU-387, HCC cell line", "method": "as §1"}, "HepG2": {"system": "HepG2", "assay": "MTT assay, HepG2", "format": "cell-based", "details": "Homo sapiens, HCC cell line", "method": "as §1"}, "BxPC-3": {"system": "BxPC-3", "assay": "MTT assay, BxPC-3", "format": "cell-based", "details": "Homo sapiens", "method": "Experiments conducted during the course of developing embodiments for the present invention involved performance of a phenotypic screen of a library of 20,000 small-molecules representing five million compounds. […] Subsequently, a lead optimization campaign was performed to synthesize a series of close analogs. Initially, the 50 analogs were tested in three pancreatic cancer cell lines using MTT assay (Table 1).\nFor in vitro studies, compounds were dissolved in DMSO at 10 mM as stock solutions and stored at −20° C. For in vivo studies, QN523 was dissolved in a vehicle containing 5% DMSO, 35% propylene glycol and 60% saline, and administered at 100 uL through intraperitoneal injections."}, "MiaPaCa-2 cells": {"system": "MiaPaCa-2 cells", "assay": "DAVID analysis of Bru-seq gene lists", "details": "genes changed at least 2 fold", "method": "Histogram represents statistical significance in regulation of the indicated theme.\nThe lists were also analyzed by Database for Annotation, Visualization and Integrated Discovery (DAVID), which identify enriched biological themes with particular focus on gene ontology terms, as well as functional-related gene groups (see, e.g., Huang da W, Sherman B T, Lempicki R A (2009) Nature protocols 4(1): 44-57; Huang da W, Sherman B T, Lempicki R A (2009) Nucleic acids research 37(1): 1-13). […] In addition, induction of apoptosis and disruption of cell cycle might be important cellular events contributing to cytotoxicity of QN523.\nTop functional terms identified by DAVID are reported."}, "SNU475": {"system": "SNU475", "assay": "MTT assay, SNU475", "format": "cell-based", "details": "Homo sapiens, SNU-475, HCC cell line", "method": "as §1"}},
  "note": "Entries after “also recorded” stand apart in the source; their conditions may differ. Where two headings read alike, the source gives them in different places.",
  "data": [
    {"smiles": "O=C(Nc1cccc2cccnc12)c1cnccn1", "note": "[QN523, Pyrazine-2-carboxylic acid quinolin-8-ylamide]", "values": [
      {"measurement": "IC50", "setting": "SNU398", "value": 1900, "unit": "nM"},
      {"measurement": "IC50", "setting": "HCT116 p53+/+", "value": "~100", "unit": "nM"},
      {"measurement": "IC50", "setting": "SNU449", "value": 400, "unit": "nM"},
      {"measurement": "inhibition of colony formation", "setting": "PDAC cell lines", "value": "Complete inhibition of colony formation"},
      {"measurement": "IC50", "setting": "Jurkat", "value": "~100", "unit": "nM"},
      {"measurement": "lowest concentration with significant induction of WIPI1 protein", "setting": "[1]; 72 h", "value": 0.25, "unit": "µM"},
      {"measurement": "autophagy-related markers WIPI1, GABARAPL1 and LC3B", "setting": "[1]; 72 h treatment, western blotting", "value": "Accumulation"},
      {"measurement": "protein levels of stress responsive markers HSPA5, DDIT3, ATF3 and GDF15", "setting": "GRP78, CHOP, ATF3, GDF15", "value": "dose dependent upregulation"},
      {"measurement": "delay in tumor growth", "setting": "MiaPaCa-2 xenograft; 10 mg/kg i.p., day 1 to day 9", "value": "no significant delay in tumor growth"},
      {"measurement": "day from which xenograft growth was delayed", "setting": "MiaPaCa-2 xenograft; 20 mg/kg i.p. from day 10, p<0.01", "value": "≥ 17", "unit": "days"},
      {"measurement": "tumor growth at higher doses", "setting": "MiaPaCa-2 xenograft; 30 mg/kg from day 45, 40 mg/kg day 51 to 60, two mice", "value": "able to delay growth of the tumors"},
      {"measurement": "symptoms of gross toxicity (weakness, weight loss, lethargy)", "setting": "MiaPaCa-2 xenograft; 10-20 mg/kg i.p., 44 days", "value": "No symptoms of gross toxicity"},
      {"measurement": "body weight of engrafted mice", "setting": "MiaPaCa-2 xenograft; 10-40 mg/kg", "value": "not affected"},
      {"measurement": "H&E stained organ sections (liver, kidney, heart, lung, spleen, pancreas)", "setting": "MiaPaCa-2 xenograft; after 44-day treatment", "value": "did not reveal major histopathological changes"},
      {"measurement": "mean tumor volume", "setting": "MiaPaCa-2 xenograft; day 44, 10 then 20 mg/kg i.p. five times a week", "value": "259±38", "unit": "mm^3"},
      {"measurement": "inhibition of tumor growth", "setting": "MiaPaCa-2 xenograft; day 44 versus vehicle control", "value": 80, "unit": "%"},
      {"measurement": "systemic toxicity", "setting": "MiaPaCa-2 xenograft; doses as high as 40 mg/kg", "value": "no systemic toxicity"},
      {"measurement": "Ki67 in tumor tissues", "setting": "MiaPaCa-2 xenograft; immunohistochemistry of xenograft sections", "value": "decreased Ki67 levels; also recorded: decreased Ki67 index"},
      {"measurement": "IC50", "setting": "[2]", "value": "< 1000", "unit": "nM"},
      {"measurement": "IC50", "setting": "Hep3B", "value": 210, "unit": "nM"},
      {"measurement": "suppression of MiaPaCa-2 colonies", "setting": "MiaPaCa-2", "value": "complete suppression of MiaPaCa-2 colonies"},
      {"measurement": "IC50", "setting": "SNU387", "value": 5730, "unit": "nM"},
      {"measurement": "IC50", "setting": "HepG2", "value": 500, "unit": "nM"},
      {"measurement": "IC50", "setting": "BxPC-3; BXPC-3, read-out: IC50 BxPC-3", "value": 3300, "unit": "nM"},
      {"measurement": "IC50", "setting": "BxPC-3; BXPC-3, read-out: IC50 Values BxPC-3", "value": "3300 ± 260", "unit": "nM"},
      {"measurement": "biological themes downregulated", "setting": "MiaPaCa-2 cells", "value": "chromosomal proteins and cell cycle genes"},
      {"measurement": "biological themes upregulated", "setting": "MiaPaCa-2 cells", "value": "Apoptosis, (bZIP) transcription factors, ER related genes and stress responses"},
      {"measurement": "IC50", "setting": "SNU475", "value": 2670, "unit": "nM"}
    ]}
  ]
}
